Assay in all cases: NCI tumour cell line growth inhibition, 48 h
The test system of assay [1] is NCI-H522 lung.
Assay [2] concerns MDA-MB-231 breast.
For assay [3], the system named is OVCAR-5 ovarian.
In assay [4] the test system is NCI-H226 lung.
The subject of assay [5] is SK-MEL-28 melanoma.
In assay [6] the test system is OVCAR-8 ovarian.
Assay [7] deals with OVCAR-3 ovarian.
Assay [8] deals with SNB-19 CNS.
Assay [9] has as its system U251 CNS.
Assay [10] concerns MALME-3M melanoma.

Each structure is given as a SMILES string.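 Following 48 hours of exposure in 96-well plates, responses at five concentrations were used to interpolate endpoints linearly. The concentration for 50% growth inhibition is given as GI50. The concentration for full growth arrest is given as TGI.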

In the case of `O=C1CCS/C(=N/S(=O)(=O)c2ccc(N3N=C4c5ccccc5CC4C3c3cccs3)cc2)N1Cc1ccccc1` (stereo not drawn), the GI50 in assay [1] is 15.9 µM; in assay [2], 21.5 µM; in [3], 22.4 µM; in assay [4], 26.5 µM; in assay [5], 42.1 µM; in [6], 19.2 µM. For the same molecule, the results for the GI50 in assay [7], in assay [8] and in assay [9] were 25.9 µM, 22.3 µM and 14.4 µM, respectively. Also, the TGI is 40 µM in assay [1]; 53.7 µM in assay [2]; 44.9 µM in assay [3]; 59.3 µM in [4]; greater than 100 µM in assay [5]; 39.3 µM in assay [6]. Besides, the TGI was determined as 60.8 µM in [7], 77.7 µM in assay [8] and 32.1 µM in assay [9].
For the molecule `C=C1CC/C=C(\C)CC[C@H](C(=C)C)[C@@H](O)/C=C(/CO)CCC1O` (stereo partly drawn), the GI50 in assay [1] is 60.7 µM; in assay [2] it was greater than 100 µM; in assay [3] it was greater than 100 µM; in [4], greater than 100 µM; in assay [5] it was greater than 100 µM; in assay [6], greater than 100 µM. The values for the GI50 in [7], in assay [8] and in [9] were 40 µM, greater than 100 µM and 85.2 µM, respectively. Further, the TGI in [1], in assay [2], in [3], in assay [4], in assay [5] and in assay [6] was greater than 100 µM throughout. The TGI in assay [7], in [8] and in assay [9] was greater than 100 µM throughout.
Regarding `COc1ccc(-c2cc(-c3ccccc3)nc(NCCNc3ccnc4cc(Cl)ccc34)n2)cc1`, the GI50 is 1.87 µM in assay [1]; 1.81 µM in [2]; 1.76 µM in assay [3]; 1.96 µM in assay [4]; 1.73 µM in assay [5]; 1.7 µM in assay [10]. The GI50 in [7] is 1.82 µM; in assay [8], 1.77 µM; in assay [9], 1.75 µM. Further, the TGI was found to be 3.8 µM in assay [1]; 3.49 µM in assay [2]; 3.3 µM in assay [3]; 4.56 µM in assay [4]; 3.35 µM in assay [5]; 3.42 µM in assay [10]. Moreover, the figures for the TGI in assay [7], in [8] and in assay [9] were 3.39 µM, 3.68 µM and 3.38 µM, respectively.
Regarding `COC(=O)[C@]1(C)CCC[C@]2(C)[C@@H]1CCC13C[C@@H](C=CO1)[C@@H](C)CC32O` (stereo partly drawn), the GI50 in assay [1] is greater than 100 µM; in [2], 65.9 µM; in assay [3] it was greater than 100 µM; in assay [4] it was greater than 100 µM; in assay [5] it was greater than 100 µM; in [6] it was greater than 100 µM. In addition, the GI50 was 17.8 µM in assay [7], greater than 100 µM in assay [8] and greater than 100 µM in assay [9]. In addition, the TGI in [1], in assay [2], in assay [3], in assay [4], in assay [5] and in [6] was greater than 100 µM throughout. Further, the TGI in assay [7] was 46.8 µM; in assay [8], greater than 100 µM; in assay [9], greater than 100 µM.
For `CCOc1ccc(Nc2nc(-c3c(C)nc4ncccn34)cs2)cc1`, the GI50 in [1] is less than 0.01 µM; in [2] it was 0.0797 µM; in assay [3], 0.0362 µM; in [4] it was 2.81 µM; in [5], 0.0673 µM; in assay [6], 0.0401 µM. Besides, the GI50 in assay [7] is less than 0.01 µM; in [8], 0.0538 µM. Also, the TGI in [1] was 1.57 µM; in [2], 22.6 µM; in assay [3], 19 µM; in [4], 22.6 µM; in [5] it was 20.7 µM; in assay [6] it was 15.9 µM. The TGI came out at 14.6 µM in assay [7] and 23.5 µM in [8].
Turning to `O=C(C(=O)c1cc(Br)ccc1O)c1cc(Br)ccc1O`, the GI50 is 2.94 µM in assay [1]; 5.33 µM in assay [2]; 22.2 µM in assay [3]; 8 µM in [5]; 2.24 µM in assay [10]; 7.46 µM in [6]. Moreover, the results for the GI50 in [7], in assay [8] and in assay [9] were 2.84 µM, 4.39 µM and 2.8 µM, respectively. For the same molecule, the TGI is 9.3 µM in assay [1]; 23 µM in [2]; 74.8 µM in assay [3]; greater than 100 µM in assay [5]; 6.12 µM in assay [10]; 40.5 µM in assay [6]. The TGI in assay [7] is 9.32 µM; in [8], greater than 100 µM; in assay [9], 9.94 µM.
For `O=C(Nc1ccc(C(F)(F)F)cc1[N+](=O)[O-])c1cccnc1`, the TGI in assay [1] is 36.1 µM; in [2], greater than 100 µM; in assay [3], greater than 100 µM; in [4], greater than 100 µM; in assay [5] it was greater than 100 µM; in assay [10], 8.32 µM. Also, the results for the TGI in assay [7], in assay [8] and in assay [9] were 7.29 µM, greater than 100 µM and greater than 100 µM, respectively.
On to `NC(N)=N/N=C/c1c(-c2ccncc2)nc2sc(Cl)cn12`, for which the GI50 was 10.1 µM in assay [1]; 1.58 µM in assay [2]; 7.1 µM in assay [3]; 3.98 µM in assay [4]; 14.3 µM in assay [5]; 15.2 µM in assay [6]. Besides, the GI50 in assay [7] was 5.55 µM; in assay [8], 7.62 µM; in assay [9] it was 1.94 µM. Moreover, the TGI in assay [1] is greater than 28.5 µM; in assay [2], 3.6 µM; in assay [3], 21.4 µM; in assay [4], 15.2 µM; in assay [5], 38.8 µM; in assay [6], 36.4 µM. The TGI in [7] is 11.6 µM; in [8], greater than 20.6 µM; in assay [9] it was 3.93 µM.

The record behind these values is PubChem BioAssay (NCI).
